According to patent US7166614B2, “Tetrahydropyranyl cyclopentyl tetrahydroisoquinoline modulators of chemokine receptor activity” (Merck & Co., Inc., priority 2002, dated 2007):

Key:
[1] = molecular target: T1, CCR-2 receptor (Homo sapiens, UniProt P41597); experiment: CCR-2 binding assay (inhibition of 125I-MCP-1 binding); details: cis isomer compared with trans isomer, resolved on preparation plate; assay not specified
T1 construct: the endogenous CCR-2 receptor on various cell types including monocytes, THP-1 cells; endogenous in cells; host or cells: monocytes, THP-1 cells (or eukaryotic cells expressing the cloned receptor)
Protocol: Receptor affinity in a CCR-2 binding assay was determined by measuring inhibition of ^125I-MCP-1 to the endogenous CCR-2 receptor on various cell types including monocytes, THP-1 cells, or after heterologous expression of the cloned receptor in eukaryotic cells. The cells were suspended in binding buffer (50 mM HEPES, pH 7.2,5 mM MgCl2, 1 mM CaCl2, and 0.50% BSA) with and added to test compound or DMSO and ^125I-MCP-1 at room temperature for 1 h to allow binding. The cells were then collected on GFB filters, washed with 25 mM HEPES buffer containing 500 mM NaCl and cell bound ^125I-MCP-1 was quantified.

[2] = Storage stability at room temperature (air oxidation, LC-MS); format: physicochemical; details: stored in a scintillation vial at room temperature for three months; degradation by air oxidation; separation by reverse phase HPLC
Protocol: Separation by Gilson reverse phase HPLC provided two new products (Example 114 and 115) and 60% of the parent compound recovered. These compounds were analyzed by NMR and LC-MS to determine the structures.

T1 sequence (P41597 whole entry): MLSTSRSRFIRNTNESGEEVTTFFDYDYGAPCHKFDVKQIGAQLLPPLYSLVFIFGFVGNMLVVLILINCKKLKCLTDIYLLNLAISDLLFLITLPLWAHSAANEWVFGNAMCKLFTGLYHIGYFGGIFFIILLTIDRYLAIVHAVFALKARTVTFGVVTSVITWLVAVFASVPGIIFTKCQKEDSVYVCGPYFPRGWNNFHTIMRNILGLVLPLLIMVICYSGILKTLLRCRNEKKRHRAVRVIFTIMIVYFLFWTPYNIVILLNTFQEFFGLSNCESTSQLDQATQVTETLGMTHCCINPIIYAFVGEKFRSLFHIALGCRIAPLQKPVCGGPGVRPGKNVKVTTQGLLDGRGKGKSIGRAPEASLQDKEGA

Structure (SMILES) | relative activity of cis vs trans isomer [1] | parent compound recovered after storage [2] [%]
CSC1(C(=O)N2CCc3ccc(C(F)(F)F)cc3C2)CC[C@@H](NC2CCOCC2)C1 (some centres unmarked) [Example 3] | more active | –
CC(C)[C@]1(C(=O)N2CCc3ccc(C(F)(F)F)cc3C2)CC[C@@H](NC2CCOCC2F)C1 (some centres unmarked) [Example 96] | – | 60
